This assay deals with T1, Receptor-interacting serine/threonine-protein kinase 1 (Homo sapiens, UniProt Q13546).
T1 sequence (Q13546 whole entry): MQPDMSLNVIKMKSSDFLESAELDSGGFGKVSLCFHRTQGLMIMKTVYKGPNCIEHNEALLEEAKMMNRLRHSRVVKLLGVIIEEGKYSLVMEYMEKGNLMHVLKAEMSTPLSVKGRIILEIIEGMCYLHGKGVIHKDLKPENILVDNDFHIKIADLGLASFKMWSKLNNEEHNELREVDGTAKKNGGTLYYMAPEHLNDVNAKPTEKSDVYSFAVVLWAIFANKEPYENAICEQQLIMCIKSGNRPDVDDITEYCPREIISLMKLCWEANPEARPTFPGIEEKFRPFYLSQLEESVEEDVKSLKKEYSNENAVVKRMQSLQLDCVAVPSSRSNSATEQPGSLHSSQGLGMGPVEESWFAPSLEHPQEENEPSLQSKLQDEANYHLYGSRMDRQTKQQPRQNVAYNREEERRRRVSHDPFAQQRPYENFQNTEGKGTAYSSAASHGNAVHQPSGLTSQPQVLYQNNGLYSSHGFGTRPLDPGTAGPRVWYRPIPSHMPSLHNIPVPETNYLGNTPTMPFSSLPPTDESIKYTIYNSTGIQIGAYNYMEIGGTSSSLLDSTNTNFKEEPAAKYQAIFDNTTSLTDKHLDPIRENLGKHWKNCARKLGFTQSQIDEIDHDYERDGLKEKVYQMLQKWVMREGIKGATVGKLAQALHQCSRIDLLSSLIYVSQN
Description: For negative control the enzyme addition was replaced by assay buffer only.

The structures appear in SMILES notation. Bounds are passed on as bounds.

By IC50 is commonly meant the concentration that inhibits the measured activity by half. In turn, `CN1C(=O)[C@H](NC(=O)c2cc(Oc3ccc(F)cc3F)ccn2)CCc2cccnc21` yielded an IC50 above 3000 nM.
Consider `CN1C(=O)[C@@H](NC(=O)c2cc(C3(c4ccccc4)CC3)on2)COc2cnccc21`, for which the IC50 lay in the range of 0.1 to 1000 nM.
`CN1C(=O)[C@@H](NC(=O)c2nn(Cc3ccccc3C#N)cc2F)COc2cccnc21` gave an IC50 of 0.1 to 1000 nM.

(Values after ChEMBL document CHEMBL5726598, “Compounds, compositions and methods” (2017).)
